Measured values taken from ChEMBL document CHEMBL1142549, “New retinoid chemotypes: 9-cis-retinoic acid analogs with hydrophobic rings derived from terpenes as selective RAR agonists” (Bioorg Med Chem, 2008).
The source made the active and inactive calls. The rule behind the calls is not given here.

Molecular target: T1, Retinoic acid receptor RXR-beta (Homo sapiens) (UniProt P28702)
T1 sequence (whole entry): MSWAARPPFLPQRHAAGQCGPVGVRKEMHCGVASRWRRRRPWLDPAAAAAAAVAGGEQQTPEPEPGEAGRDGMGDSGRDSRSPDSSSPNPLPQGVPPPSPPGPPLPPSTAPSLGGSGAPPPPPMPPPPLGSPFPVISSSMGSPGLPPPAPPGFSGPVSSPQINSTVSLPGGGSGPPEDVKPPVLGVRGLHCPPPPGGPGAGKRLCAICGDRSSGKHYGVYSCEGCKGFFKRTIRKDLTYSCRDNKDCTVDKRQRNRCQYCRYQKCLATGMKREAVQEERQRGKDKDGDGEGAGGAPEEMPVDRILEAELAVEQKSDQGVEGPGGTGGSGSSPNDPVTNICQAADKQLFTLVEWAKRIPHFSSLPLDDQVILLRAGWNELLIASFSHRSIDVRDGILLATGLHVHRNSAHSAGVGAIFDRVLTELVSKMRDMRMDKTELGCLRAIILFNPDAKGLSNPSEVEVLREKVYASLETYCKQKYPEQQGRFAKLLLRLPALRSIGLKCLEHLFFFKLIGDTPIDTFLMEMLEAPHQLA
Assay: Agonist activity at human RXRbeta expressed in human HeLa cells assessed as relative luminescence units by luciferase assay relative to control
Assay type: functional, cell-based

Activity: Active
SMILES: CC(=C/C=C/C(C)=C/C(=O)O)/C=C/C1=C[C@H](C)CC[C@H]1C(C)C
